Test results as given in patent US20110020460A1, “GPR 119 MODULATORS” (Pfizer Inc., priority 2009, published 2011).
“And” between values parts separate entries of the source, which are not always exact repeats. Equal entries are not always repeated.

Experiments:
human GPR119 [1] = target: T1, human GPR119 (Homo sapiens, UniProt Q8TDV5); test: beta-lactamase reporter functional assay (hGPR119 HEK293-CRE beta-lactamase cells); format: cell-based; details: for EC50: read-out: Human B-lactamase Functional EC50; for Emax: read-out: Intrinsic Activity* (B-lactamase)
T1 construct: host or cells: HEK293-CRE-beta-lactamase
T1 sequence (Q8TDV5 1-335): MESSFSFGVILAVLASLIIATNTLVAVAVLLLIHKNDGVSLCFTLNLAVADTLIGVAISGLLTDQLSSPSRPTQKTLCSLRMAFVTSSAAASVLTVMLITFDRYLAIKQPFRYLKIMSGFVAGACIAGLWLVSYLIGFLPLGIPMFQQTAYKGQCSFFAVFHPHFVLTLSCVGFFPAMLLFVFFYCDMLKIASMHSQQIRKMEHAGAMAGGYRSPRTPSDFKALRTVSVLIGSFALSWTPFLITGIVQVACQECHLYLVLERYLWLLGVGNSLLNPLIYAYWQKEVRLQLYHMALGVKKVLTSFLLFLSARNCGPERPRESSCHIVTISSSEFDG
Description: The assay for GPR119 agonists utilizes a cell-based (hGPR119 HEK293-CRE beta-lactamase) reporter construct where agonist activation of human GPR119 is coupled to beta-lactamase production via a cyclic AMP response element (CRE). GPR119 activity is then measured utilizing a FRET-enabled beta-lactamase substrate, CCF4-AM (Live Blazer FRET-B/G Loading kit, Invitrogen cat #K1027). […] After 4 hours the plating medium was removed and replaced with 40 microL of assay medium (Assay medium is plating medium without potassium clavulanate and HIFBS). Varying concentrations of each compound to be tested was then added in a volume of 10 microL (final DMSO≦0.5%) and the cells were incubated for 16 hours at 37 degrees Celsius in a humidified environment containing 5% carbon dioxide. Plates were removed from the incubator and allowed to equilibrate to room temperature for approximately 15 minutes. 10 microL of 6×CCF4/AM working dye solution (prepared according to instructions in the Live Blazer FRET-B/G Loading kit, Invitrogen cat #K1027) was added per well and incubated at room temperature for 2 hours in the dark. Fluorescence was measured on an EnVision fluorimetric plate reader, excitation 405 nm, emission 460 nm/535 nm. EC50 determinations were made from agonist-response curves analyzed with a curve fitting program using a 4-parameter logistic dose-response equation.

human GPR119 [2] = target: T1, human GPR119; test: cAMP HTRF functional assay (hGPR119 HEK-CRE beta-lactamase cells); format: cell-based; details: for Emax: read-out: Intrinsic Activity* (cAMP)
Description: GPR119 agonist activity was also determined with a cell-based assay utilizing an HTRF (Homogeneous Time-Resolved Fluorescence) cAMP detection kit (cAMP dynamic 2 Assay Kit; Cis Bio cat #62AM4PEC) that measures cAMP levels in the cell. The method is a competitive immunoassay between native cAMP produced by the cells and the cAMP labeled with the dye d2. The tracer binding is visualized by a Mab anti-cAMP labeled with Cryptate. The specific signal (i.e. energy transfer) is inversely proportional to the concentration of cAMP in either standard or sample.
Following 30 minutes incubation at room temperature, 5 microL of labeled d2 cAMP and 5 microL of anti-cAMP antibody (both diluted 1:20 in cell lysis buffer; as described in the manufacturers assay protocol) were added to each well of the assay plate. […] Raw data were converted to nM cAMP by interpolation from a cAMP standard curve (as described in the manufacturer's assay protocol) and EC50 determinations were made from an agonist-response curves analyzed with a curve fitting program using a 4-parameter logistic dose response equation.

human GPR119 [3] = target: T1, human GPR119; test: GPR119 radioligand binding assay ([3H]-Compound A or [3H]-Compound B, HEK 293FT membranes); details: Ki from IC50 by Cheng-Prusoff; one value per run; read-out: Human Binding Ki
Description: Cells were harvested via centrifugation (3,000×g, 10 minutes), washed once on DPBS (minus Ca++/Mg++), resuspended in 0.25M sucrose, 25 mM HEPES, 0.5 mM EDTA, pH 7.4 and frozen at −80 degrees Celsius.
The frozen cells were thawed on ice and centrifuged at 700×g (1400 rpm) for 10 minutes at 4 degrees Celsius. The cell pellet was resuspended in 20 mL phosphate-buffered saline, and centrifuged at 1400 rpm for 10 minutes. […] Cells were then lysed with 15 gentle strokes of a tight-fitting glass Dounce homogenizer. The homogenate was centrifuged at 1000×g (2200 rpm) for 10 minutes at 4 degrees Celsius. The supernatant was transferred into fresh centrifuge tubes on ice. The cell pellet was resuspended in homogenization buffer, and centrifuged again at 1000×g (2200 rpm) for 10 minutes at 4 degrees Celsius after which the supernatant was removed and the pellet resuspended in homogenization buffer. […] The solution was then centrifuged at 25,000×g (15000 rpm) for 20 minutes at 4 degrees Celsius, the supernatant was discarded, and the pellet was resuspended in fresh homogenization buffer (minus Benzonase and MgCl2). After repeating the 25,000×g centrifugation step, the final membrane pellet was resuspended in homogenization buffer and frozen at −80 degrees Celsius.
2 microL of each dilution was added to appropriate wells of a 96-well plate (each concentration in triplicate).
Membranes expressing GPR119 were thawed and diluted to a final concentration of 20 μg/100 microL per well in Binding Buffer, and 100 microL of diluted membranes were added to each well of 96-well plate.
The plate was incubated for 60 minutes w/shaking at room temperature (approximately 25 degrees Celsius). […] Filters were then washed six times using washing buffer (50 mM Tris-HCl, pH 7.5 kept at 4 degrees Celsius). The filter plates were then air-dyed at room temperature overnight.
IC50 determinations were made from competition curves, analyzed with a proprietary curve fitting program (SIGHTS) and a 4-parameter logistic dose response equation. Ki values were calculated from IC50 values, using the Cheng-Prusoff equation.

[4] = **curve was extrapolated to 100% to calculate an EC50
[5] = hGPR119 HEK-CRE beta-lactamase cells, HTRF cAMP, one value per run
[6] = percent of maximal activity relative to standard GPR119 agonist (WO2005121121) at 10 μM, one value per run
[7] = hGPR119 HEK293-CRE beta-lactamase cells, one value per run
[8] = percent of maximal activity relative to standard GPR119 agonist (WO2005121121) at 10 microM, one value per run

| Structure (SMILES) | EC50 (human GPR119 [1]; [4]) | Emax (human GPR119 [1]; [4]) [%] | EC50 (human GPR119 [2]; [5]) | Emax (human GPR119 [2]; [6]) [%] | Ki (human GPR119 [3]) | EC50 (human GPR119 [2]; [4]) [nM] | Emax (human GPR119 [2]; [4]) [%] | EC50 (human GPR119 [1]; [7]) | Emax (human GPR119 [1]; [8]) [%] | Intrinsic Activity* (B-lactamase) (human GPR119 [1]; [8]) | Intrinsic Activity* (cAMP) (human GPR119 [2]; [6]) | Intrinsic Activity* (B-lactamase) (human GPR119 [1]; percent of maximal activity relative to standard GPR119 agonist (WO2005121121) at 10 microM, one value per run, listed as Exmaple 28) [%] |
| --- | --- | --- | --- | --- | --- | --- | --- | --- | --- | --- | --- | --- |
| Cc1ccccc1OCc1cnn(C2CCN(C(=O)OC(C)C)CC2)c1C#N [Example 12, Isopropyl 4-{5-cyano-4-[(2-methylphenoxy)methyl]-1H-pyrazol-1-yl}piperidine-1-carboxylate] | 5200 nM | 100 | > 10000 nM | 31 | 1700 nM |  |  |  |  |  |  |  |
| CC(C)OC(=O)N1CCC(n2ncc(COc3ccc(-c4nnn[nH]4)cc3F)c2C#N)CC1 [Example 19, Isopropyl 4-(5-cyano-4-((2-fluoro-4-(1H-tetrazol-5-yl)phenoxy)methyl)-1H-pyrazol-1-yl)piperidine-1-carboxylate and Isopropyl 4-(5-cyano-4-((2-fluoro-4-(2H-tetrazol-5-yl)phenoxy)methyl)-1H-pyrazol-1-yl)piperidine-1-carboxylate] | 4000 nM and 4810 nM | 100 | 4550 nM | 99 | > 6100 nM | 4480 | 100 |  |  |  |  |  |
| CC(C)OC(=O)N1CCC(n2ncc(COc3ccc(-c4nnnn4C)cc3F)c2C#N)CC1 [Example 20, Isopropyl 4-(5-cyano-4-((2-fluoro-4-(1-methyl-1H-tetrazol-5-yl)phenoxy)methyl)-1H-pyrazol-1-yl)piperidine-1-carboxylate] | 131 nM | 100 | 59 nM and 90 nM | 123 | 41 nM and 144 nM |  |  | 61 nM | 107 |  |  |  |
| CC(C)OC(=O)N1CCC(n2ncc(COc3ccc(-c4nnn(C)n4)cc3F)c2C#N)CC1 [Example 21, Isopropyl 4-(5-cyano-4-((2-fluoro-4-(2-methyl-2H-tetrazol-5-yl)phenoxy)methyl)-1H-pyrazol-1-yl)piperidine-1-carboxylate] |  |  | 44 nM and 32 nM and 57 nM | 33 | 58 nM and 128 nM |  |  | 688 nM and 201 nM | 100 | 96% | 31% and 34% |  |
| CC(C)OC(=O)N1CCC(n2ncc(C(C)Oc3ccc(S(C)(=O)=O)cc3F)c2C#N)CC1 (stereo not drawn) [Example 27, Isopropyl 4-(5-cyano-4-{1-[2-fluoro-4-(methylsulfonyl)phenoxy]ethyl}-1H-pyrazol-1-yl)piperidine-1-carboxylate] |  |  | 394 nM | 27 | 1640 nM and 528 nM |  |  | 1870 nM and 3400 nM | 102 | 100% |  |  |
| Cc1ncccc1OC(C)c1cnn(C2CCN(C(=O)OC(C)C)CC2)c1C#N (stereo not drawn) [Example 28, Isopropyl 4-(5-cyano-4-{1-[(2-methylpyridin-3-yl)oxy]ethyl}-1H-pyrazol-1-yl)piperidine-1-carboxylate] |  |  | > 10000 nM |  | > 6100 nM |  |  | 5 nM and 3 nM | 27 |  |  | 22 |
| CC(C)OC(=O)N1CCC(n2ncc(CC(C)c3ccc(S(C)(=O)=O)cc3F)c2C#N)CC1 (stereo not drawn) [Example 29, Isopropyl 4-(5-cyano-4-{2-[2-fluoro-4-(methylsulfonyl)phenyl]propyl}-1H-pyrazol-1-yl)piperidine-1-carboxylate] | 3010 nM | 100 |  | 27 | 1550 nM and 3380 nM |  |  |  |  |  | 33% |  |

Second part, the molecule after the results:

| EC50 (human GPR119 [1]; [4]) | Emax (human GPR119 [1]; [4]) [%] | EC50 (human GPR119 [2]; [5]) | Emax (human GPR119 [2]; [6]) [%] | Ki (human GPR119 [3]) | EC50 (human GPR119 [2]; [4]) [nM] | Emax (human GPR119 [2]; [4]) [%] | EC50 (human GPR119 [1]; [7]) | Emax (human GPR119 [1]; [8]) [%] | Intrinsic Activity* (B-lactamase) (human GPR119 [1]; [8]) | Intrinsic Activity* (cAMP) (human GPR119 [2]; [6]) | Intrinsic Activity* (B-lactamase) (human GPR119 [1]; percent of maximal activity relative to standard GPR119 agonist (WO2005121121) at 10 microM, one value per run, listed as Exmaple 28) [%] | Structure (SMILES) |
| --- | --- | --- | --- | --- | --- | --- | --- | --- | --- | --- | --- | --- |
|  |  | 256 nM and 245 nM | 68 | 2020 nM |  |  | 136 nM and 166 nM |  | 113% and 76% | 60% |  | Cc1ncccc1OCc1cnn(C2CCN(C(=O)OC3(C)CC3)CC2)c1C#N [Example 30, 1-Methylcyclopropyl 4-(5-cyano-4-{[(2-methylpyridin-3-yl)oxy]methyl}-1H-pyrazol-1-yl)piperidine-1-carboxylate] |
|  |  | 66 nM and 64 nM and 58 nM | 66 | 514 nM |  |  | 281 nM | 86 |  | 78% and 60% |  | CC(C)OC(=O)N1CCC(n2ncc(COc3c(F)ccc(F)c3F)c2C#N)CC1 [Example 32, Isopropyl 4-{5-cyano-4-[(2,3,6-trifluorophenoxy)methyl]-1H-pyrazol-1-yl}piperidine-1-carboxylate] |
|  |  | 55 nM and 70 nM | 94 | 87 nM |  |  | 270 nM | 102 |  | 78% |  | CC(C)OC(=O)N1CCC(n2ncc(COc3ccc(-c4cncn4C)cc3F)c2C#N)CC1 [Example 34, Isopropyl 4-(5-cyano-4-{[2-fluoro-4-(1-methyl-1H-imidazol-5-yl)phenoxy]methyl}-1H-pyrazol-1-yl)piperidine-1-carboxylate] |
|  |  | 18 nM and 31 nM | 76 | 31 nM and 29 nM |  |  | 76 nM and 125 nM | 83 | 101% | 66% |  | Cc1nc(-n2cncn2)ccc1OCc1cnn(C2CCN(C(=O)OC(C)C)CC2)c1C#N [Example 35, Isopropyl 4-[5-cyano-4-({[2-methyl-6-(1H-1,2,4-triazol-1-yl)pyridin-3-yl]oxy}methyl)-1H-pyrazol-1-yl]piperidine-1-carboxylate] |
|  |  | 281 nM and 256 nM |  | 521 nM and 1450 nM |  |  | 848 nM | 100 |  | 51% and 76% |  | Cc1nc(-n2cncn2)ccc1NCc1cnn(C2CCN(C(=O)OC(C)C)CC2)c1C#N [Example 36, Isopropyl 4-[5-cyano-4-({[2-methyl-6-(1H-1,2,4-triazol-1-yl)pyridin-3-yl]amino}methyl)-1H-pyrazol-1-yl]piperidine-1-carboxylate] |
